Source: patent US6410545B1, “Lipid lowering quinazoline dietary supplement composition” (Parker Hughes Institute, priority 1998, dated 2002)
“And” between values parts separate entries of the source, which are not always exact repeats. Equal entries are not always repeated.

How the values were obtained:
[1] = tested on: apo e−/− mice; assay: Hepatic and plasma lipids (Oil Red O staining, tissue lipid extraction) in apo e−/− mice on Western diet; assay type: in vivo; conditions: 40 mg/kg/day for 1 week
Procedure: (§1) Serum total cholesterol was measured enzymatically using the cholesterol kit from Sigma Chemical Co. (St. Louis, Mo., USA). For liver tissue lipid measurements, lipids were extracted from homogenized hepatic tissues using the method of Bligh and Dyer (Bligh, et al., Can. J. Biochem. Phys. 1959, 37:911-917). One gram of liver tissue was homogenized in 1 ml of distilled water and extracted with 4 ml of chloroform/methanol (1:1, v/v). The chloroform phase containing the lipids was evaporated under a stream of nitrogen, the lipids dissolved in 100 μL of isopropanol, and subjected to cholesterol determination as described above. Triglyceride (TG) contents were determined using the TG kit from Sigma Chemical Co.
(§2) At the end of the experiment, the animals were sacrificed and the harvested tissues were fixed in 10% phosphate buffered formalin overnight, embedded, sectioned, and stained by hematoxylin and eosin (H&E). The stained sections were examined for pathological changes. For Oil Red O staining, the liver was excised and snap frozen in liquid nitrogen. Five micrometer thick sections were obtained using the LeicaCM1800 cryostat (Heerbrugg, Switzerland), stained in 0.5% Oil Red O in propylene glycol for 1 hour, destained in 85% propylene glycol for 1 minute, rinsed twice in distilled water, counterstained in Mayer's hematoxylin for a few seconds, rinsed twice in distilled water, and mounted in Crystalmount (Biomedia Corp., Foster City, Calif.). The Oil Red O stainable material at 400 X magnification was quantitated using the ImagePro plus program (Media Cybernetics, Silver Spring, Md., USA) in conjunction with a 3CCD camera (DAGE-MTI Inc., Michigan City, USA).
apo e^−/− mice accumulate large amounts of TG-rich lipid droplets in their livers, due a blocked VLDL-TG secretion (Kuipers et al., 1997, J. Clin. Invest. 100:2915-2922). […] When tissue lipids were measured, there was a 22% reduction in hepatic cholesterol 39% reduction in hepatic triglycerides.

[2] = tested on: C57B⅙ mice; assay: In vivo hepatic VLDL-TG production using Triton WR1339 in C57B⅙ mice
Procedure: C57B⅙ and apoE-deficient mice were treated with intraperitoneal injections of 50 μl vehicle or 40 mg/kg WHI-P164 in 50 μl vehicle for 7 consecutive days, followed by a 36 hour fast to shut down intestinal chylomicron synthesis. […] Blood samples were taken at 0 and 4 hours after Triton WR1339 injection and plasma TG levels were measured enzymatically using a commercially available enzymatic kit (Sigma Chemical Co.). Alternatively, food was returned to the mice after a 36 hour fast and blood samples were collected at 0, 1, 3, 6, and 9 hours after returning the food. Accumulation of chylomicron-TG was determined as accumulation of plasma TG.
To determine if WHI-P164 prevent hepatic TG accumulation by relieving 9 block in VLDL-TG secretion or by inhibiting upstream TG synthesis, in vivo hepatic VLDL-TG synthesis was analyzed. Synthesis was determined by following the accumulation of VLDL-TG after shutting down VLDL catabolism with Triton WR1339 injection and intestinal chylomicron synthesis with a 36 hours fast.
C57B⅙ and apoE-deficient mice were treated with intra peritoneal injections of vehicle or 40 mg/kg WHI-P164 (in 50 μl vehicle) for 7 consecutive days, followed by a 36 hour fast to shut down intestinal chylomicron synthesis. […] Blood samples (50 μl) were taken at 0 and 4 hours after Triton WR1339 injection and plasma TG was measured enzymatically using a commercially available enzymatic kit (Sigma Chemical Co.), as previously reported (Kuipers, supra).

[3] = tested on: hypercholesterolemic C57B⅙ mice; assay: Serum total cholesterol in hypercholesterolemic C57B⅙ mice on Paigen's cocoa butter diet; assay type: in vivo; conditions: 1.6 mg/kg/day
Procedure: Three- to four-week old C57B⅙ male mice (Taconic, Germantown, N.Y., USA) were kept in micro-isolator cages on a 12-hour day/night cycle and fed the Paigen's cocoa butter diet (15.8% fat, 1.25% cholesterol, and 0.5% sodium cholate) (Harlan Teklad, Madison, Wis., USA) for two weeks prior to initiation of lipid lowering therapy. Paigen's diet is described in Nishina et.al., 1993, J. Lipid Res. 34: 1413-1422.
Animals were treated with test compounds by intraperitoneal injection daily for 7 days. A range of doses was administered. Control animals received vehicle alone. The effect of quinazoline derivatives on total cholesterol, LDL, HDL, liver enzymes, and glucose was analyzed. The mice tissues were also examined histologically.
as §1
A high cholesterol and high fat diet was used to induce hypercholesterolemia in C57B⅙mice, using the methods described by Paigen, et al. (Nishina, et al., 1993, J. Lipid Res. 34:1413-1422) and as described for Example 1.

[4] = tested on: C57B⅙ mice; assay: Blood chemistry, weight and histopathology of treated C57B⅙ mice; assay type: in vivo
Procedure: […] A range of doses was administered. Control animals received vehicle alone. The effect of quinazoline derivatives on total cholesterol, LDL, HDL, liver enzymes, and glucose was analyzed. The mice tissues were also examined histologically.
Serum levels alanine aminotransferase (ALT), alkaline phosphatase (ALP), lactate dehydrogenase (LDH), blood urea nitrogen (BUN), creatinine, creatinine phosphokinase (CPK), and glucose were determined by using a Synchron CX5 Clinical System (Beckman Instruments, Inc., Fullerton, Calif.) following manufacturer's instructions. For the glucose tolerance test, blood glucose levels were determined using the portable One Touch Profile glucose meter (Lifescan, Milpitas, Calif., USA).
as §2

[5] = C57B⅙ mice, indicated dose levels

Compound: COc1cc2ncnc(C(=O)c3cccc(Br)c3)c2cc1OC [WHI-P164, 4-(3′-bromobenzoyl)-6,7-dimethoxyquinazoline]
- Oil Red O stainable lipid material in liver [1]: 658±256 red pixels/field
- hepatic cholesterol [1]: 51.4 ± 4.4 mg/g wet wt
- hepatic triglycerides [1]: 211.6 ± 27 mg/g wet wt
- plasma FFA [1]: 3.6 ± 0.3 mM
- plasma TG [1]: 165 ± 19 mg/dL
- Reduction in hepatic cholesterol ([1]; versus vehicle): 22%
- Reduction in hepatic triglycerides ([1]; versus vehicle): 39%
- Reduction of liver lipid material (image analysis) ([1]; versus vehicle): 75%
- Accumulation of VLDL-TG after Triton WR1339 treatment ([2]; C57B⅙ mice, 40 mg/kg, versus vehicle): significantly less accumulation of VLDL-TG than vehicle-treated control mice
- Triglyceride, Pre-Triton WR 1339 ([2]; apo e+/+ (C57B1/6), 40 mg/kg i.p. 7 days, 36 hour fast): 124 ± 12 (n = 5) mg/dL
- Triglyceride, Post-Triton WR 1339 ([2]; apo e+/+ (C57B1/6), 40 mg/kg i.p. 7 days, 36 hour fast, 4 hours after Triton WR1339): 1031 ± 95 (n = 8) mg/dL
- Serum total cholesterol ([3]; apo e+/+ C57B1/6 mice, cocoa butter diet two weeks, then drug 1 week at 1.6 mg/kg/day i.p.): 348.6 ± 27.6 mg/dL and 349 ± 28 mg/dL
- Reduction in mean serum total cholesterol ([3]; hypercholesterolemic C57B⅙ mice, one week, versus untreated): 23%
- Histopathologic examination of tissues [4, 5]: did not reveal any drug related toxic lesions
- Liver enzymes (ALT, ALP, LDH) and BUN/Creatinine [4, 5]: remained within normal limits
- Clinical or laboratory signs of toxicity ([4]; C57B⅙ mice, indicated dose levels (1.6-16 mg/kg/day)): not associated with any obvious clinical or laboratory signs of toxicity
- ALP ([4]; treated C57B1/6 mice, 1 week): 101 ± 3 IU/L
- BUN ([4]; treated C57B1/6 mice, 1 week): 25.4 ± 2.0 mg/dL
- Glucose ([4]; treated C57B1/6 mice, 1 week): 201 ± 18 mg/dL
- LD-L ([4]; treated C57B1/6 mice, 1 week): 1402 ± 144 IU/L
- Net weight change ([4]; treated C57B1/6 mice, 1 week): -0.26 ± 0.22 g
- ALP ([4]; treated C57B1/6 mice, 2 weeks): 94 ± 10 IU/L
- ALT ([4]; treated C57B1/6 mice, 2 weeks): 148 ± 54 IU/L
- LD-L ([4]; treated C57B1/6 mice, 2 weeks): 459 ± 83 IU/L
- Net weight change ([4]; treated C57B1/6 mice, 2 weeks): 1.88 ± 0.42 g
